Test results as given in patent US9593108B2, “Compounds and methods for antiviral treatment” (PTC Therapeutics, Inc., priority 2009, dated 2017).

Key:
[1] = tested on: HCV replicon RNA (GenBank Accession No. AJ242654); experiment: HCV Replicon Assay (replicon RNA reduction and/or Fluc reporter signal); format: cell-based, Hepatitis C virus; conditions: Hepatitis C virus, 72 h, replicon-containing cells cultured with test compound for up to 3 days
Outline: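 Bicistronic replicon-containing cells cultured with compound for up to 3 days, with interferon as positive control. Inhibition quantified by replicon RNA reduction and/or Fluc reporter signal; IC50 values generally derived from replicon RNA reduction.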

## Cc1ccc2c(C#N)c(-c3ncc(S(=O)(=O)N[C@H](C)C(F)(F)F)cn3)n(C3CCC3)c2n1 [Cpd 138, 2-(3-cyano-1-cyclobutyl-6-methyl-1H-pyrrolo[2,3-b]pyridin-2-yl)-N-[(2R)-1,1,1-trifluoropropan-2-yl]pyrimidine-5-sulfonamide]
[1]
  IC50: 500 to 2000 nM
other
  melting point: 205 to 209 °C

## CSc1cnc2c(c1)c(C#N)c(-c1ccc(S(=O)(=O)N[C@H](C)C(F)(F)F)cn1)n2C1CCCC1 [Cpd 273, 6-[3-cyano-1-cyclopentyl-5-(methylsulfanyl)-1H-pyrrolo[2,3-b]pyridin-2-yl]-N-[(2R)-1,1,1-trifluoropropan-2-yl]pyridine-3-sulfonamide]
[1]
  IC50: < 500 nM
other
  melting point: 124 to 127 °C

## CCc1cnc2c(c1)c(C#N)c(-c1ccc(S(=O)(=O)NC3(C)CC3)cc1)n2C1CCC1 [Cpd 187, 4-(3-cyano-1-cyclobutyl-5-ethyl-1H-pyrrolo[2,3-b]pyridin-2-yl)-N-(1-methylcyclopropyl)benzenesulfonamide]
[1]
  IC50: < 500 nM
other
  melting point: 157 to 163 °C

## COc1cnc2c(c1)c(C#N)c(-c1ccc(S(=O)(=O)N[C@@H](C)C(F)(F)F)c[n+]1[O-])n2C1CCC1 [Cpd 236, 6-(3-cyano-1-cyclobutyl-5-methoxy-1H-pyrrolo[2,3-b]pyridin-2-yl)-N-[(2S)-1,1,1-trifluoropropan-2-yl]pyridine-3-sulfonamide 1-oxide]
[1]
  IC50: 2000 to 5000 nM
other
  melting point: 155 to 157 °C

## Cc1nc(-c2c(C#N)c3cc(C(F)(F)F)cnc3n2C2CCC2)ccc1S(=O)(=O)N[C@@H](C)C(F)(F)F [Cpd 338, 6-[3-cyano-1-cyclobutyl-5-(trifluoromethyl)-1H-pyrrolo[2,3-b]pyridin-2-yl]-2-methyl-N-[(2S)-1,1,1-trifluoropropan-2-yl]pyridine-3-sulfonamide]
[1]
  IC50: < 500 nM
other
  melting point: 162 to 165 °C

## Cc1cnc2c(c1)c(C#N)c(-c1ccc(S(=O)(=O)N[C@@H](C)C(F)(F)F)cc1)n2C [Cpd 483, 4-(3-cyano-1,5-dimethyl-1H-pyrrolo[2,3-b]pyridin-2-yl)-N-[(2S)-1,1,1-trifluoropropan-2-yl]benzenesulfonamide]
[1]
  IC50: 500 to 2000 nM
other
  melting point: 165 to 170 °C

## Cc1cnc2c(c1)c(C#N)c(-c1ccc(NC(C)C)cc1)n2C1CCC1 [Cpd 264, 1-cyclobutyl-5-methyl-2-[4-(propan-2-ylamino)phenyl]-1H-pyrrolo[2,3-b]pyridine-3-carbonitrile]
[1]
  IC50: < 500 nM
other
  melting point: 193 to 199 °C

## C[C@H](NS(=O)(=O)c1ccc(-c2c(C#N)c3cc(OC(F)F)cnc3n2C2CCC2)cc1)C(F)(F)F [Cpd 198, 4-[3-cyano-1-cyclobutyl-5-(difluoromethoxy)-1H-pyrrolo[2,3-b]pyridin-2-yl]-N-[(2S)-1,1,1-trifluoropropan-2-yl]benzenesulfonamide]
[1]
  IC50: 500 to 2000 nM
other
  melting point: 155 to 156 °C

## C[C@H](NS(=O)(=O)c1ccc(-c2c(C#N)c3cccnc3n2C2CCCC2)nc1)C(F)(F)F [Cpd 221, 6-(3-cyano-1-cyclopentyl-1H-pyrrolo[2,3-b]pyridin-2-yl)-N-[(2S)-1,1,1-trifluoropropan-2-yl]pyridine-3-sulfonamide]
[1]
  IC50: < 500 nM
other
  melting point: 157 to 159 °C

## Cc1cnc2c(c1)c(C#N)c(-c1ccc(S(=O)(=O)N[C@@H](C)C(F)(F)F)cn1)n2-c1cc(C(F)(F)F)ccn1 [Cpd 433, 6-{3-cyano-5-methyl-1-[4-(trifluoromethyl)pyridin-2-yl]-1H-pyrrolo[2,3-b]pyridin-2-yl}-N-[(2S)-1,1,1-trifluoropropan-2-yl]pyridine-3-sulfonamide]
[1]
  IC50: < 500 nM
other
  melting point: 192 to 194 °C

## CC1(NS(=O)(=O)c2ccc(-c3c(C#N)c4cc(C#N)cnc4n3C3CCC3)nc2)CC1 [Cpd 113, 6-(3,5-dicyano-1-cyclobutyl-1H-pyrrolo[2,3-b]pyridin-2-yl)-N-(1-methylcyclopropyl)pyridine-3-sulfonamide]
[1]
  IC50: < 500 nM
other
  melting point: 198 to 200 °C

## N#Cc1c(-c2ccc(S(=O)(=O)NC3CCC3)cn2)n(C2CCC2)c2ncc(C3CC3)cc12 [Cpd 134, 6-(3-cyano-1-cyclobutyl-5-cyclopropyl-1H-pyrrolo[2,3-b]pyridin-2-yl)-N-cyclobutylpyridine-3-sulfonamide]
[1]
  IC50: < 500 nM
other
  melting point: 189 to 197 °C

## Cc1cc2c(C#N)c(-c3ccc(S(=O)(=O)N[C@@H](C)C(F)(F)F)cc3)n(C3CCC3)c2cn1 [Cpd 167, 4-(3-cyano-1-cyclobutyl-5-methyl-1H-pyrrolo[2,3-c]pyridin-2-yl)-N-[(2S)-1,1,1-trifluoropropan-2-yl]benzenesulfonamide]
[1]
  IC50: < 500 nM
other
  melting point: 188 to 191 °C

## C[C@H](NS(=O)(=O)c1cnc(-c2c(C#N)c3cc(F)cnc3n2C2CCC2)nc1)C(F)(F)F [Cpd 21, 2-(3-cyano-1-cyclobutyl-5-fluoro-1H-pyrrolo[2,3-b]pyridin-2-yl)-N-[(2S)-1,1,1-trifluoropropan-2-yl]pyrimidine-5-sulfonamide]
[1]
  IC50: < 500 nM
other
  melting point: 186 to 187 °C

## CC(C)(NS(=O)(=O)c1ccc(-c2c(C(N)=O)c3cc(Cl)cnc3n2C2CCC2)cc1)C(F)(F)F [Cpd 329, 5-chloro-1-cyclobutyl-2-{4-[(1,1,1-trifluoro-2-methylpropan-2-yl)sulfamoyl]phenyl}-1H-pyrrolo[2,3-b]pyridine-3-carboxamide]
[1]
  IC50: < 500 nM
other
  melting point: 263 to 265 °C

## Cc1cnc2c(c1)c(C#N)c(-c1ccc(S(=O)(=O)N[C@@H](C)C(F)(F)F)cn1)n2-c1ncccn1 [Cpd 345, 6-[3-cyano-5-methyl-1-(pyrimidin-2-yl)-1H-pyrrolo[2,3-b]pyridin-2-yl]-N-[(2S)-1,1,1-trifluoropropan-2-yl]pyridine-3-sulfonamide]
[1]
  IC50: < 500 nM
other
  melting point: 221 to 223 °C

## COc1ccnc(-n2c(-c3ccc(S(=O)(=O)N[C@@H](C)C(F)(F)F)cn3)c(C#N)c3cc(C(F)(F)F)cnc32)n1 [Cpd 333, 6-[3-cyano-1-(4-methoxypyrimidin-2-yl)-5-(trifluoromethyl)-1H-pyrrolo[2,3-b]pyridin-2-yl]-N-[(2S)-1,1,1-trifluoropropan-2-yl]pyridine-3-sulfonamide]
[1]
  IC50: 2000 to 5000 nM
other
  melting point: 209 to 211 °C

## Cc1ccc2c(C#N)c(-c3ccc(S(=O)(=O)NC(C)(C)C)cc3)n(C3CCC3)c2n1 [Cpd 141, N-tert-butyl-4-(3-cyano-1-cyclobutyl-6-methyl-1H-pyrrolo[2,3-b]pyridin-2-yl)benzenesulfonamide]
[1]
  IC50: 500 to 2000 nM
other
  melting point: 194 to 200 °C

## CCc1nc2c(cc1OC)c(C#N)c(-c1ccc(S(=O)(=O)N[C@H](C)C(F)(F)F)cn1)n2C1CCC1 [Cpd 259, 6-(3-cyano-1-cyclobutyl-6-ethyl-5-methoxy-1H-pyrrolo[2,3-b]pyridin-2-yl)-N-[(2R)-1,1,1-trifluoropropan-2-yl]pyridine-3-sulfonamide]
[1]
  IC50: 2000 to 5000 nM
other
  melting point: 189 to 199 °C

## Cc1cnc2c(C#N)c(-c3ccc(S(=O)(=O)N[C@@H](C)C(F)(F)F)cn3)n(-c3ccncc3)c2c1 [Cpd 482, 6-[3-cyano-6-methyl-1-(pyridin-4-yl)-1H-pyrrolo[3,2-b]pyridin-2-yl]-N-[(2S)-1,1,1-trifluoropropan-2-yl]pyridine-3-sulfonamide]
[1]
  IC50: < 500 nM
other
  melting point: 303 to 305 °C

## C[C@H](NS(=O)(=O)c1ccc(-c2c(C#N)c3cc(Cl)cnc3n2C2CCC2)nc1)C(F)(F)F [Cpd 51, 6-(5-chloro-3-cyano-1-cyclobutyl-1H-pyrrolo[2,3-b]pyridin-2-yl)-N-[(2S)-1,1,1-trifluoropropan-2-yl]pyridine-3-sulfonamide]
[1]
  IC50: < 500 nM
other
  melting point: 203 to 204 °C

## CCc1cnc2c(c1)c(C#N)c(-c1ncc(S(=O)(=O)NC(C)C)cn1)n2C1CCC1 [Cpd 196, 2-(3-cyano-1-cyclobutyl-5-ethyl-1H-pyrrolo[2,3-b]pyridin-2-yl)-N-(propan-2-yl)pyrimidine-5-sulfonamide]
[1]
  IC50: < 500 nM
other
  melting point: 170 to 178 °C

## C[C@H](NS(=O)(=O)c1ccc(-c2c(C#N)c3cc(C(F)(F)F)cnc3n2-c2ncccn2)nc1)C(F)(F)F [Cpd 303, 6-[3-cyano-1-(pyrimidin-2-yl)-5-(trifluoromethyl)-1H-pyrrolo[2,3-b]pyridin-2-yl]-N-[(2S)-1,1,1-trifluoropropan-2-yl]pyridine-3-sulfonamide]
[1]
  IC50: < 500 nM
other
  melting point: 213 to 215 °C

## CC[C@H](NS(=O)(=O)c1ccc(-c2c(C#N)c3cc(Cl)cnc3n2C2CCC2)nc1)C(F)(F)F [Cpd 276, 6-(5-chloro-3-cyano-1-cyclobutyl-1H-pyrrolo[2,3-b]pyridin-2-yl)-N-[(2S)-1,1,1-trifluorobutan-2-yl]pyridine-3-sulfonamide]
[1]
  IC50: < 500 nM
other
  melting point: 186 to 191 °C

## C[C@H](NS(=O)(=O)c1ccc(-c2c(C#N)c3ccc(Cl)nc3n2C2CCC2)nc1)C(F)(F)F [Cpd 161, 6-(6-chloro-3-cyano-1-cyclobutyl-1H-pyrrolo[2,3-b]pyridin-2-yl)-N-[(2S)-1,1,1-trifluoropropan-2-yl]pyridine-3-sulfonamide]
[1]
  IC50: < 500 nM
other
  melting point: 172 to 178 °C

## COc1cnc2c(c1)c(C#N)c(-c1ccc(S(=O)(=O)NC3(C)CC3)cn1)n2C1CCC1 [Cpd 311, 6-(3-cyano-1-cyclobutyl-5-methoxy-1H-pyrrolo[2,3-b]pyridin-2-yl)-N-(1-methylcyclopropyl)pyridine-3-sulfonamide]
[1]
  IC50: < 500 nM
other
  melting point: 179 to 181 °C

## CC[C@H](NS(=O)(=O)c1ccc(-c2c(C#N)c3cc(OC)cnc3n2C2CCC2)nc1)C(F)(F)F [Cpd 232, 6-(3-cyano-1-cyclobutyl-5-methoxy-1H-pyrrolo[2,3-b]pyridin-2-yl)-N-[(2S)-1,1,1-trifluorobutan-2-yl]pyridine-3-sulfonamide]
[1]
  IC50: < 500 nM
other
  melting point: 186 to 191 °C
